Measurements as given in US9486461B2, “Methods and compositions for inducing apoptosis by stimulating ER stress” (UNIVERSITY OF SOUTHERN CALIFORNIA, priority 2007, dated 2016).

What was measured:
[1] = tested on: CHOP, GRP78, caspase 4 in U251 glioblastoma cells; assay: Western blot of ER stress indicators in U251 cells; format: cell-based, human; conditions: for CHOP expression, time kinetics: U251, 50 μmol/L, 4 h up to 24 h
Experimental: U251 glioblastoma cells were cultured in the presence of 1 μM thapsigargin (Tg) or 60 μM DMC for various times, as indicated. Total cell lysates were prepared and analyzed by Western blot with specific antibodies to the ER stress proteins GRP78, CHOP, and caspase 4 (Casp 4). Actin was used as a loading control.
Shown are (A) time kinetics at 50 μM of each drug, and (B) concentration dependence after 15 hours of incubation.
Shown are (FIG. 7A) time kinetics at 50 μM of each drug, and (FIG. 7B), concentration dependence after 15 hours of incubation.
U251 glioblastoma cells were cultured for 24 hours in the presence of increasing concentrations of (A) bortezomib (BZM) or (B) DMC. Total cell lysates were analyzed by Western blot with specific antibodies to ubiquitin, GRP78, CHOP, and caspase 4. Actin was used as a loading control.
Total cell lysates were prepared by lysis of cells with radioimmunoprecipitation assay buffer (28), and protein concentrations were determined using the bicinchoninic acid protein assay reagent (Pierce, Rockford, Ill.). For Western blot analysis, 50 Ag of each sample were processed as described (29). The primary antibodies were purchased from Cell Signaling Technologies (Beverly, Mass.), Cayman Chemical (Ann Arbor, Mich.), or Santa Cruz Biotechnology, Inc. (Santa Cruz, Calif.) and used according to the manufacturer's recommendations. The secondary antibodies were coupled to horseradish peroxidase and detected by chemiluminescence using the SuperSignal West substrate from Pierce. All immunoblots were repeated at least once to confirm the results.
Total cell lysates were prepared and analyzed by Western blot analysis as described earlier (19). Immunohistochemical analysis of protein expression in tumor tissues was performed with the use of the Vectastain avidin-biotin complex method kit (Vector Laboratories) as described previously (32). The primary antibodies were purchased from Cell Signaling Technology or Santa Cruz Biotechnology, Inc. and used according to the manufacturers' recommendations. All immunoblots and stainings were repeated at least once to confirm the results.

[2] = tested on: CHOP protein in U87 glioblastoma tumor tissue; assay: Immunohistochemical staining for CHOP in xenograft tumor tissue; format: in vivo, nude mice; conditions: for CHOP staining of tumor tissues: 30-180 mg/kg per day for 50 h, DMC and celecoxib already at lowest dosages
Description: In all cases, representative sections are shown.
Immunohistochemical analysis of protein expression in tumor tissues was done with the use of the Vectastain avidin-biotin complex method kit (Vector Laboratories, Burlingame, Calif.) according to the manufacturer's instructions. This procedure uses biotinylated secondary antibodies and a preformed avidin: biotinylated enzyme complex that has been termed the avidin-biotin complex method technique. As the primary antibody, we used anti-CHOP antibody (Santa Cruz Biotechnology) diluted 1:100 in 2% normal goat blocking serum.

[3] = tested on: cytoplasmic calcium levels in U251 cells; assay: Cytoplasmic calcium imaging (Fura-2/AM); format: cell-based, human; conditions: for elevation of cytoplasmic calcium levels: 100 μmol/L of each drug, Fura-2/AM loaded cells
Experimental: (A) U251 cells were treated with DMC or various coxibs and NSAIDs, and changes in intracellular calcium levels were recorded as described in Materials & Methods. […] Arrows indicate timepoint of drug addition. […] Essentially similar results were also obtained with the LN229 cell line.
The cells were loaded by incubating them with […] Fura-2/AM (Invitrogen) for 30 min at room temperature in external solution containing 138 mmol/L NaCl, 5.6 mmol/L KCl, 1.2 mmol/L MgCl2, 2.6 mmol/L CaCl2, 10 mmol/L HEPES, and 4 mmol/L glucose (pH 7.4). After loading, the cells were rinsed and transferred to the imaging setup. The cells were treated with individual drugs for 10 s, whereas fluorescence was elicited with the excitation wavelength alternating between 350 and 380 nm, using a Polychromator V (TILL Photonics GmbH, Grafelfing, Germany) to provide illumination via a Zeiss Axiovert 100 microscope with a Zeiss Fluar 40 oil objective (Carl Zeiss, Jena, Germany). Images were captured using a Cascade 512B CCD camera (Photometrics, Tucson, Ariz.) controlled with MetaFluor software (Molecular Devices, Sunnyvale, Calif.) at 0.5 Hz acquisition frequency. Ratios of the images obtained at 350 and 380 nm excitation were used to show changes in the cytoplasmic calcium concentration, according to the principles developed by Grynkiewicz et al. (31).

Compound	CHOP expression, time kinetics [1]	increase in CHOP or GRP78 protein, concentration dependence ([1]; U251, 15 hours, concentrations up to 75 or 100 μmol/L)	expression of GRP78 and CHOP ([1]; U251, increasing concentrations, 24 hours)	time at which activation (cleavage) of caspase-4 was first noted ([1]; U251, 1 μM thapsigargin or 60 μM DMC) [h]	CHOP and GRP78 expression levels ([1]; U251, 1 μM thapsigargin or 60 μM DMC, prominent increase at 6 h and thereafter)	CHOP expression in tumor tissue ([2]; U87MG xenograft, 1 mg/kg BZM and 7.5 mg/kg DMC individually or in combination, 50 h)	CHOP staining of tumor tissues ([2]; U87 xenograft)	CHOP protein expression in tumor tissue ([2]; U87 xenograft, animals fed drug for 50 h)	elevation of cytoplasmic calcium levels [3]	average maximum calcium peak compared with celecoxib ([3]; 100 μmol/L, difference not statistically significant)
Cc1ccc(C)c(-c2cc(C(F)(F)F)nn2-c2ccc(S(N)(=O)=O)cc2)c1 [DMC, 4-[5-(2,5-dimethylphenyl)-3-(trifluoromethyl)-1H-pyrazol-1-yl]benzenesulfonamide]	pronounced induction of CHOP	potently induced	strong induction of GRP78 and CHOP	~24	substantially elevated	did not cause much elevated CHOP expression	positive for CHOP	large increase in CHOP protein expression	pronounced calcium spike	somewhat greater
Cc1ccc(-c2cc(C(F)(F)F)nn2-c2ccc(S(N)(=O)=O)cc2)cc1 [celecoxib, 4-[5-(4-methylphenyl)-3-(trifluoromethyl)-1H-pyrazol-1-yl]benzenesulfonamide]	noticeable lower compared with DMC	–	–	–	–	–	positive for CHOP	–	pronounced calcium spike	–
